Key:
[1] = test system: inducing peptide construct; assay: ELISA of serum IgG antibody to the inducing (homologous) peptide construct in immunized rats; type: in vivo, Sprague Dawley rats; conditions: for immunogenicity (percentage of animals responding and titer of responding sera): FIG. 1
Method: (§1) Immunogenicity of Peptides: Sprague Dawley CD strain 43 day-old male rats (Charles River Laboratories) were used for injection. Six groups of 4-5 rats were injected subcutaneously in the vicinity of the salivary glands with 50 μg each of GGY, AND, SAND or CAT peptide constructs, 10 μg of GTF, or sham-immunized with buffer alone. The initial injection included complete Freund adjuvant (CFA; Difco); two subsequent injections at 21-day intervals included incomplete Freund adjuvant. Animals were bled prior to injection and 14-21 days after each injection. Serum from coagulated and centrifuged blood was stored frozen at −20° C. until use.
(§2) ELISA: Serum IgG and salivary IgA antibodies were tested by enzyme-linked immunosorbent assay (ELISA). Polystyrene microtiter plates (Flow Laboratories) were coated with […] of each peptide construct or 0.5 μg of S. sobrinus GTF. Antibody activity was then measured by incubation with 1:100 to 1:10^6 dilutions of sera, or 1:4 to 1:32 dilutions of saliva. Plates were then developed for IgG antibody rabbit anti-rat IgG followed in sequence by alkaline phosphatase goat anti-rabbit IgG (Biosource Inc.) and p-nitrophenylphosphate (Sigma). A mouse monoclonal reagent to rat α chain (Zymed, South San Francisco, Calif.) was used with biotinylated goat anti-mouse IgG (TAGO, Inc., Burlingame, Calif.) and avidin-alkaline phosphatase (Cappel) to reveal levels of salivary IgA antibody to peptides. Reactivity was recorded as absorbance (A405 nm) in a micro plate reader (Biotek Instruments). Data are reported as absorbance (A405 nm), reciprocal titer, or as ELISA units (EU) which were calculated relative to the levels of appropriate reference sera or salivas from Sprague Dawley rats thrice immunized with the respective peptide construct. Dilutions of 1:12,800 and 1:6,400 (A405 nm approximately 1.0) were considered 100 EU for serum IgG to the GGY and AND constructs, respectively. Dilutions of 1:32 were considered 100 EU for salivary IgA to both GGY and AND constructs.
(§3) Two experiments were performed. Groups (n=11-12) of 23-26 day-old rats were subcutaneously (sc) injected in the salivary gland vicinity with (experiment 1) GGY (50 μg), AND (50 μg) or GTF(10 μg), or phosphate buffered saline (control animals), or (experiment 2) GGY (50 ;μg) or PBS. Each antigen was incorporated with complete Freund adjuvant in both experiments. Eight (experiment 1) or 14 (experiment 2) days later, rats were reinjected with PBS or with the same antigen and dose in incomplete Freund adjuvant. Six (experiment 1) or 12 (experiment 2) days after the second injection, animals were bled from the tail vein, and saliva was collected after injection of pilocarpine (1.0 mg/100 g body weight). Fourteen (experiment 1) or 11 (experiment 2) days after the second injection, all rats were orally infected with approximately 10^8 S. mutans for 3 consecutive days. Both experiments were terminated 63 days after initial infection.
(§4) Two experiments were performed to measure the effect of immunization with the eight-branched GGY and AND peptide constructs on experimental dental caries in the Sprague-Dawley rat. In the first experiment, groups of rats were immunized with GGY or AND peptide constructs. In the second experiment groups of rats were immunized only with the GGY peptide construct. Pre-infection sera and salivas were collected for antibody measurement in 39 day old rats in experiment 1 (6 days after the second injection) and 51 day old rats in experiment 2 (12 days after the second injection). In the GGY-immunized rat groups, IgG antibody levels to GGY (experiment 1=21.9+17.8 EU; experiment 2=108.0±4.0 EU) were elevated above those of the sham-immunized groups (experiment 1=1.7±0.2 EU; experiment 2=4.0±3.0 EU) in both experiments and reached statistical significance (p<0.002) in experiment 2.

[2] = test system: S. sobrinus GTF; assay: ELISA of serum IgG antibody reacting with intact S. sobrinus GTF; type: in vivo; conditions: 63 day sera, FIG. 3; for IgG antibody reactivity with intact S. sobrinus GTF: n=4-5 per group
Description: (§5) Glucosyltransferases: Glucosyltransferases (GTF) from S. sobrinus strain 6715 were purified from culture supernatants after bacterial growth in glucose-containing defined media, as described in Taubman et al. (J. Oral Pathol. 17:466-470 (1988)). Enzymes were separated from other culture supernatant proteins by affinity chromatography on Sephadex G-100 (Pharmacia Fine Chemicals), using 6M guanidine HCl as the eluting solvent. GTFs were then obtained from the guanidine HCl eluate by FPLC chromatography on Superose 6 (Pharmacia) using 6M guanidine for elution. GTF preparations contained a mixture of GTF-I, GTF-Sd, and GTF-Si.
as §1, §2

[3] = target: T1, AND peptide construct (Streptococcus mutans serotype c, UniProt P08987); assay: Cross-reactivity ELISA, plates coated with AND peptide construct; type: binding; conditions: day 63 sera; FIG. 4
T1 construct: GGY and AND were 19-mer peptides; purchased Applied Diagnostics, Foster City, Calif; host or cells: chemical solid phase synthesis
T1 sequence (P08987 whole entry, looked up): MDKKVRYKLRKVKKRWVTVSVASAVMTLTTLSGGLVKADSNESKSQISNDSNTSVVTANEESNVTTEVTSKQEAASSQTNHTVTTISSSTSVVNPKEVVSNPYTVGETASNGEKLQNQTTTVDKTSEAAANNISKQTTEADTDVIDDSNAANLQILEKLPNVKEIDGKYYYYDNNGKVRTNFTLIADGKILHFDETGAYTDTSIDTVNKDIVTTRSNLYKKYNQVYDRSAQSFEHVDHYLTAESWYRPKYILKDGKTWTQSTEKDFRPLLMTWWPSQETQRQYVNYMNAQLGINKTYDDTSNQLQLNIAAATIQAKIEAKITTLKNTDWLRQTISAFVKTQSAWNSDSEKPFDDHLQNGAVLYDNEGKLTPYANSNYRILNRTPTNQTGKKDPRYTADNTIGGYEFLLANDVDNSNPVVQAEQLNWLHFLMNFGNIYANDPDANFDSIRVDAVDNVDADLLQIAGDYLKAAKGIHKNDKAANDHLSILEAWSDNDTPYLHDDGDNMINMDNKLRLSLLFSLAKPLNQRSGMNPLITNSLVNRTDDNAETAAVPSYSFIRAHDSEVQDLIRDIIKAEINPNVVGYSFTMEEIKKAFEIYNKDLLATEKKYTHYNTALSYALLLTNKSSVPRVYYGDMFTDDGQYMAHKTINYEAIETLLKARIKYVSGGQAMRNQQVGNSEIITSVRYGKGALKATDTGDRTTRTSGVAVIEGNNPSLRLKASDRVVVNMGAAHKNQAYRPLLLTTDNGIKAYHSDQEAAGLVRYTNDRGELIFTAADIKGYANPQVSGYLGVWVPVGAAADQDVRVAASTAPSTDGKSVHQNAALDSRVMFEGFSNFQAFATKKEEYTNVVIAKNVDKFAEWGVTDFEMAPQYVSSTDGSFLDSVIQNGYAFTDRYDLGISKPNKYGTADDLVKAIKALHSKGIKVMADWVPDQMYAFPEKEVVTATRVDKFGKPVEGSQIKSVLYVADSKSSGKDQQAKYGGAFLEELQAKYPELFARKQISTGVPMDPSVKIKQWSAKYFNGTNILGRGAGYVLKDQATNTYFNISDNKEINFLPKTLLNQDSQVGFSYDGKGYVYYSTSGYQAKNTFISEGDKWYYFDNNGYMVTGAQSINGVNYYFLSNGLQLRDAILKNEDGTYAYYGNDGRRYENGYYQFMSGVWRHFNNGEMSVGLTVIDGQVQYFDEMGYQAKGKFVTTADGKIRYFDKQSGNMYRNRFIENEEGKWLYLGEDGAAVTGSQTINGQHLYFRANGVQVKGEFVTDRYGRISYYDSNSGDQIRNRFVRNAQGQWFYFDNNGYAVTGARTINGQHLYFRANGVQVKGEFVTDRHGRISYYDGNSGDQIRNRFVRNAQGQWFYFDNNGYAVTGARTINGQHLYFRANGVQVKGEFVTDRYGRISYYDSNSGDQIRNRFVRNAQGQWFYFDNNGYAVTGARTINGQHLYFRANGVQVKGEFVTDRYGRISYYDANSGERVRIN
Method: as §1
(§6) ELISA: Serum IgG and salivary IgA antibodies were tested by enzyme-linked immunosorbent assay (ELISA). Polystyrene microtiter plates (Flow Laboratories) were coated with […] of each peptide construct or 0.5 μg of S. sobrinus GTF. Antibody activity was then measured by incubation with 1:100 to 1:10^6 dilutions of sera, or 1:4 to 1:32 dilutions of saliva. […] Reactivity was recorded as absorbance (A405 nm) in a micro plate reader (Biotek Instruments). Data are reported as absorbance (A405 nm), reciprocal titer, or as ELISA units (EU) which were calculated relative to the levels of appropriate reference sera or salivas from Sprague Dawley rats thrice immunized with the respective peptide construct. […]

[4] = test system: experimental dental caries; conditions: Taubman et al. Infect. Immun. 63:3088-3093 (1995); protocol similar to experiment 1; cited from earlier work
[5] = test system: anti-GGY serum; assay: Epitope mapping by ELISA inhibition, anti-GGY serum on GGY-coated plates; type: binding, rat; conditions: anti-GGY serum preincubated with heptamer or intact peptide; FIG. 8
Method: Epitope Mapping: B cell epitopes were mapped on the GGY and AND peptides by an ELISA inhibition technique. Anti-GGY or anti-AND sera were preincubated with 13 separate heptamers representing the incremental peptide sequence of the respective peptide, or with intact peptide, followed by the conventional ELISA with intact peptide-coated plates. B cell epitopes were indicated by a significant reduction in absorbance.

[6] = target: T2, CAT peptide construct (Streptococcus mutans serotype c, UniProt P08987); assay: Cross-reactivity ELISA, plates coated with CAT peptide construct; type: binding; conditions: day 63 sera; FIG. 4
T2 construct: residues 442-462 of S. mutans GTF-B; purchased Applied Diagnostics, Foster City, Calif; host or cells: chemical solid phase synthesis
Method: as §1, §6

[7] = test system: S. sobrinus GTF; assay: Antibody inhibition of glucan synthesis (filter assay, 14C glucose incorporation into water-insoluble glucan); type: biochemical, S. sobrinus strain 6715
Description: as §5
Antibody Inhibition of Glucan Synthesis: Selected rat sera were evaluated for their ability to inhibit glucan synthesis catalyzed by S. sobrinus GTF, using a filter assay. Ten μl volumes of sera (1:100 dilutions in 0.02M sodium phosphate buffered saline and 0.02% sodium azide [PBSA], pH 6.5) were preincubated with the respective GTF for 1 hour at 37° C. in a total volume of 0.04 ml PBSA. Then 1.7 mg sucrose, 44 nCi of [^14C-glucose]-sucrose (approximately 100,000 cpm) were added in 0.2 ml PESA in the presence of 37 μg of dextran T10 (Pharmacia). Incubation proceeded for 18 hours at 37° C., after which water-insoluble glucan was collected on Whatman GF/F glass fiber filters, washed with PBSA, and radioactivity determined as described in Smith et al. (Infect. Immunity 62:5470-5476 (1994)).

[8] = test system: inducing peptide construct; assay: ELISA of salivary IgA antibody to the inducing (homologous) peptide construct in immunized rats; type: in vivo, Sprague Dawley rats; conditions: for rats with significant levels of salivary IgA antibody: GGY- and AND-injected rats counted together
Method: as §1, §2, §3, §4

[9] = test system: S. mutans SJ32; assay: Protection experiments: caries assessment (modified Keyes method) after S. mutans infection; type: in vivo, Sprague-Dawley rats; conditions: both experiments
Description: Experimental Protocol for Protection Experiments: Animals used in the present experiments were derived from germ-free Sprague-Dawley rats that had been reared in the isolator facility of Charles River Laboratories, Wilmington, Mass. (Area 051). […] These rats served as initial breeding stock for dams used in these experiments and were regularly monitored for absence of mutans streptococci. The progeny of the dams used for the present experiments were weaned at approximately 21 days and were subsequently fed high sucrose Diet 2000.
as §3
Caries assessment: The extent and depth of carious lesions in all rat molar teeth (caries score) were microscopically evaluated by a modified Keyes method as previously described (Taubman et al., J. Immunol. 118:710-720 (1977)). Caries scores were determined separately on smooth and on sulcal dental surfaces.

[10] = target: T3, GGY peptide construct (Streptococcus mutans serotype c, UniProt P08987); assay: Cross-reactivity ELISA, plates coated with GGY peptide construct; type: binding; conditions: day 63 sera; FIG. 4
T3 construct: GGY and AND were 19-mer peptides; purchased Applied Diagnostics, Foster City, Calif; host or cells: chemical solid phase synthesis
Method: as §1, §6

[11] = protection experiment 1, pre-infection

Substance: ANDVDNSNPVVQ [SAND]
- immunogenicity (percentage of animals responding and titer of responding sera) ([1]; immunogenicity experiment): weakly immunogenic

Substance: CAT: 21-mer peptide containing Asp 451, residues 442-462 of S. mutans GTF-B; positive control (DANFDSIRVDAVDNVDADLLQ) [reference compound]
- IgG antibody reactivity with intact S. sobrinus GTF [2]: significant reactivity with GTF
- reaction of serum IgG antibody with the AND peptide construct [3]: significant reaction
- protective effect against experimental dental caries [4]: a significant protective effect was shown

Substance: LLANDVD
- inhibition of GGY antibody binding to intact peptide-coated plates [5]: significantly inhibited

Substance: FLLANDV
- inhibition of GGY antibody binding to intact peptide-coated plates [5]: significantly inhibited

Substance: ANDVDNSNPVVQAEQLNWL
- reaction of serum IgG antibody with the CAT peptide [6]: low but significant reaction
- IgG antibody reactivity with intact S. sobrinus GTF [2]: significant reactivity with GTF
- GTF reactivity compared with antibody induced by the other peptides [2]: significantly more reactive with GTF
- immunogenicity (percentage of animals responding and titer of responding sera) ([1]; immunogenicity experiment): at least as high as observed for the positive control CAT peptide
- effect of subsequent immunization on serum IgG titers ([1]; immunogenicity experiment, day 21 (one injection) vs day 63 (three injections)): increased serum IgG titers in all AND-injected rats
- serum IgG antibody to the inciting antigen after the first injection ([1]; immunogenicity experiment, rats 43 days old at start, 50 μg sc in CFA, day 21): induced serum IgG antibody to the inciting antigen after the first injection in all rats
- Serum IgG antibody levels to the AND construct [1, 11]: not significantly elevated
- levels of serum IgG antibody (in words) ([1]; protection experiment 1, weanling rats, two injections eight days apart, bled 14 days after onset (day 39 of life)): little detectable antibody
- inhibition of formation of water-insoluble glucan from sucrose by S. sobrinus GTF (in words) ([7]; 63 day sera from injected rats, AND p<0.01, FIG. 5): inhibited GTF activity
- level of inhibitory activity compared with other immunogens ([7]; 63 day sera, AND vs CAT p<0.02): exceeded that observed with sera from rats similarly immunized with CAT
- rats with significant levels of salivary IgA antibody ([8]; day 21 (one injection)): 7/9
- rats with significant levels of salivary IgA antibody ([8]; day 63 (three injections)): 8/9
- salivary IgA antibody levels to the AND construct [8, 11]: not significantly elevated
- mean and median total, smooth surface, and occlusal caries scores vs sham-injected group [9]: lower than the respective scores of the sham-injected group
- reaction of antisera with the GGY peptide construct [10]: reaction with antisera induced by AND was observed

From patent US20010048926A1, “SYNTHETIC PEPTIDE VACCINES FOR DENTAL CARIES” (priority 1992, published 2001)
